“And” between values parts separate entries of the source, which are not always exact repeats. Equal values may be shown once.
Assays:
[1] = tested on: rats subjected to li-pilo SE; assay: Quantification of cell densities 14 days after lithium-pilocarpine SE (Example 2); format: in vivo, rat; conditions: 14 days after SE
Procedure: All rats received lithium chloride (3 meq/kg, i.p., Sigma, St Louis, Mo., U.S.A.) and about 20 h later, all animals received also methylscopolamine bromide (1 mg/kg, s.c., Sigma) that was administered to limit the peripheral effects of the convulsant. SE was induced by injecting pilocarpine hydrochloride (25 mg/kg, s.c., Sigma) 30 min after methylscopolamine. The effects of increasing doses of TC (RWJ) were studied in 5 groups of rats. […] The control group received vehicle instead of pilocarpine and TC.
At the moment, neuronal counting is still in progress in the second group of animals studied for epileptogenesis and long-term counting and the data concerning that part of the study will not be included in the present report. For neuronal counting, animals were deeply anesthetized with […] pentobarbital (Dolethal®, Vetoquinol, Lure, France). Brains were then removed and frozen. Serial 20 μm slices were cut in a cryostat, air-dried during several days before thionine staining. […] The grid of counting was placed on a well defined area of the cerebral structure of interest and counting was carried out with a microscopic enlargement of 200- or 400-fold defined for each single cerebral structure. Cell counts were performed twice on each side of three adjacent sections for each region by a single observer unaware of the animal's treatment. The number of cells obtained in the 12 counted fields in each cerebral structure was averaged. This procedure was used to minimize the potential errors that could result from double counting leading to overestimation of cell numbers. […] Counts involved only neurons with cell bodies larger than 10 μm. Cells with small cell bodies were considered as glial cells and were not counted.
For neuronal damage and epileptogenesis, statistical analysis between groups was performed by means of a one-way analysis of variance followed by a post-hoc Dunnett or Fisher test using the Statistica software.

[2] = tested on: rats subjected to Li-pilo induced SE; assay: Latency to and frequency of spontaneous recurrent seizures (SRS), lithium-pilocarpine model (Example 1); format: in vivo, rat; conditions: pilo-DZP
Procedure: All rats received lithium chloride (3 meq/kg, i.p., Sigma, St Louis, Mo., U.S.A.); about 20 h later, animals were placed into plexiglas boxes, in order to record baseline cortical EEG. Methylscopolamine bromide (1 mg/kg, s.c., Sigma) was administered to limit the peripheral effects of the convulsant. SE was induced by injecting pilocarpine hydrochloride (25 mg/kg, s.c., Sigma) 30 min after methyl-scopolamine. The bilateral EEG cortical activity was recorded during the whole duration of SE and behavioral changes were noted.
The effects of increasing doses of the test compound were studied on 3 groups of rats. The animals of the first group received 10 mg/kg of the test compound, i.p., 1 h after the onset of SE (pilo-TC10) while the animals of groups 2 and 3 received 30 and 60 mg/kg of the test compound (pilo-TC30 and pilo-TC60), respectively.
Another group was injected with 2 mg/kg diazepam (DZP, i.m.) at 1 h after the onset of SE. This is a standard treatment to improve animals survival after SE (pilo-DZP). The control group received saline instead of pilocarpine and the test compound (saline-saline). The pilo-test compound rats surviving SE were then injected about 10 h after the first test compound injection with a second i.p. injection of the same dose of the test compound and were maintained under a twice daily treatment with the test compound for 6 additional days. Pilo-DZP received a second injection of 1 mg/kg DZP on the day of SE at about 10 h after the first one. Thereafter, Pilo-DZP and saline-saline rats received twice daily an equivalent volume of saline.
The effects of the test compound on the EEG and on the latency to occurrence of SRS were investigated by daily video recording of the animals for 10 h per day and the recording of the electrographic activity twice a week for 8 h.
To calculate the frequency of SRS in pilocarpine-exposed rats, the seizure severity and distinguished stage III (clonic seizures of facial muscles and anterior limbs) and stage IV-V seizures (rearing and falling) was considered. The frequency of stage III SRS per week in pilo-DZP and pilo-test compound rats was variable amongst the groups. It was low, constant in the pilo-DZP and pilo-TC60 (with early SRS onset) groups during the first 3 weeks and had disappeared during the 4th week in the pilo-DZP group. […] The frequency of more severe stage IV-V SRS was highest during the first week in most groups, except pilo-TC30 and TC60 with late seizure onset where the SRS frequency was constant over the whole 4 weeks in TC30 group and over the first two weeks in the pilo-TC60 group with late SRS onset in which no stage IV-V seizures where no seizures recorded after the second week.

[3] = DZP rats compared to control rats
[4] = DZP rats compared to control saline-treated rats
[5] = pilo-DZP (2.5 mg/kg i.m.), n = 7

CN1C(=O)CN=C(c2ccccc2)c2cc(Cl)ccc21 [DZP, diazepam, reference compound]
neurons surviving, all parts of the entorhinal cortex ([1]; DZP group): 27-81%
neuronal damage, amygdala central nucleus [1, 3]: no neuronal damage
neuronal drop out, CA1 region of the hippocampus (pyramidal cell layer) [1, 3]: 85%
neuronal drop out, amygdala basolateral nucleus [1, 3]: 73%
neuronal drop out, amygdala medial dorsal anterior nucleus [1, 3]: 53%
neuronal drop out, thalamus central medial nucleus [1, 3]: 34%
neuronal drop out, thalamus dorsolateral medial dorsal nucleus [1, 3]: 40%
neuronal drop out, thalamus mediodorsal central nucleus [1, 3]: 18%
neuronal drop out, thalamus mediodorsal lateral nucleus [1, 3]: 24%
neuronal loss, CA3 region [1, 3]: 40%
neuronal loss, amygdala medial ventral posterior nucleus [1, 3]: 38%
neuronal loss, hilus of the dentate gyrus [1, 3]: 65% and 66%
neuronal loss, thalamus mediodorsal nucleus [1, 3]: 49%
neuronal loss, ventral lateral division of the dorsolateral thalamic nucleus [1, 3]: 90%
damage, dorsal entorhinal cortex layer II [1, 4]: 18%
damage, dorsal entorhinal cortex layers III-IV [1, 4]: 24%
damage, ventral entorhinal cortex layer II [1, 4]: 22% and 19%
damage, ventral entorhinal cortex layers III/IV [1, 4]: 74% and 73%
neuronal loss, piriform cortex dorsal layer II [1, 4]: 66%
neuronal loss, piriform cortex layer III [1, 4]: 94%
neuronal loss, piriform cortex ventral layer II [1, 4]: 89%
number of neuronal cell bodies, Amygdala, Basolateral [1, 5]: 12.8 ± 5.3
number of neuronal cell bodies, Amygdala, Medial, dorsal anterior [1, 5]: 40.0 ± 2.5
number of neuronal cell bodies, Amygdala, Medial, ventral posterior [1, 5]: 21.8 ± 2.4
number of neuronal cell bodies, Cerebral cortex, Entorhinal, layer II, dorsal [1, 5]: 23.5 ± 0.7
number of neuronal cell bodies, Cerebral cortex, Entorhinal, layer II, ventral [1, 5]: 21.7 ± 1.3
number of neuronal cell bodies, Cerebral cortex, Entorhinal, layer III/IV, dorsal [1, 5]: 22.3 ± 0.5
number of neuronal cell bodies, Cerebral cortex, Entorhinal, layer III/IV, ventral [1, 5]: 7.7 ± 2.3
number of neuronal cell bodies, Cerebral cortex, Piriform, layer II, dorsal [1, 5]: 12.6 ± 4.2
number of neuronal cell bodies, Cerebral cortex, Piriform, layer II, ventral [1, 5]: 3.6 ± 0.7
number of neuronal cell bodies, Cerebral cortex, Piriform, layer III [1, 5]: 1.2 ± 1.2
number of neuronal cell bodies, Hippocampus, CA1 area [1, 5]: 10.9 ± 1.9
number of neuronal cell bodies, Hippocampus, CA3 area [1, 5]: 31.3 ± 2.9
number of neuronal cell bodies, Hippocampus, Hilus [1, 5]: 33.5 ± 3.0
number of neuronal cell bodies, Thalamus, Central medial [1, 5]: 74.2 ± 7.4
number of neuronal cell bodies, Thalamus, Dorsolateral, medial, dorsal [1, 5]: 61 ± 6.3
number of neuronal cell bodies, Thalamus, Dorsolateral, ventral lateral [1, 5]: 9.7 ± 2.5
number of neuronal cell bodies, Thalamus, Mediodorsal central [1, 5]: 26.3 ± 1.8
number of neuronal cell bodies, Thalamus, Mediodorsal lateral [1, 5]: 19.6 ± 0.8
number of neuronal cell bodies, Thalamus, Mediodorsal medial [1, 5]: 16.4 ± 1.9
frequency of stage IV-V SRS ([2]; first week): 11.3 SRS per week
latency to SRS ([2]; n=9): 18.2 ± 6.9 days
